Laboratory results reported in PMC11822746, “Nanoscale Hydrophobicity of Transport Barriers in the Nuclear Pore Complex as Compared with the Liquid/Liquid Interface by Scanning Electrochemical Microscopy” (Analytical Chemistry, 2025).

What was measured:
[1] = tested on: NPCs of micropore-supported nuclear envelope (NE); test: Steady-state SECM approach-curve measurement of NPC permeability to GRn; format: in vitro ADME, Xenopus laevis; settings: SECM approach curve at centre of micropore-supported NE patch, 10 μm-diameter micropipet, MIB; 8.6 μM GR25 or 130 μM GR5; finite element fit, homogeneous model; fit uncertainty ±20%
Experimental: The nucleus was isolated from the stage VI oocyte of an adult female X. laevis frog (Ecocyte Bioscience, Austin, Texas) to spread the NE on a microporous Si3N4 membrane, as reported elsewhere.[24] The large nucleus (∼0.4 mm in diameter) was isolated in the isotonic 1.5% PVP solution of mock intracellular buffer (MIB) at pH 7.4. MIB contains 90 mM KCl, 10 mM NaCl, 2 mM MgCl2, 1.1 mM EGTA, 0.15 mM CaCl2, and 10 mM HEPES, where free Ca^2+ was buffered at the physiological level of ∼200 nM in oocytes.[39] The spread NE was adhered to the membrane treated with Cell-Tak (Corning, Corning, New York).
A home-built SECM instrument[40] with a potentiostat (CHI 7042E, CH Instruments, Austin, Texas) was controlled by using a custom LabVIEW program (National Instruments, Austin, Texas).[41] Tapered micropipets were obtained from borosilicate glass capillaries (o.d./i.d. = 1.0 mm/0.58 mm, 10 cm in length) using a CO2-laser capillary puller (model P-2000 Sutter Instrument, Novato, California). […]
We employed DNNS-doped micropipets to measure the similar steady-state permeability of the NPCs to GRn. […] The strong transient response to GR25 is attributed to the dissociation of GR25 from the NPC as induced by an SECM tip and was investigated quantitatively by chronoamperometry below to confirm strong NPC–GR25 interactions. […]

[2] = extra-thermodynamic assumption (tetraphenylarsonium/tetraphenylborate); cited from earlier work
Description: We calibrated the potential of the NB phase against the aqueous phase by using an extra-thermodynamic assumption (Figure 3) to calculate the free energy change in GRn transfer, as discussed later. Specifically, it was assumed that the free energies of tetraphenylarsonium and tetraphenylborate transfer across the interface are identical.[36] […] Half-wave and formal potentials are identical for electrochemically reversible transfer of tetrabutylammonium.

SMILES | steady-state permeability, kss, through the NE [1] | formal potential of transfer across the NB/water interface [2] [V]
N=C(N)NCCC[C@H](NC(=O)CNC(=O)[C@H](CCCNC(=N)N)NC(=O)CNC(=O)[C@H](CCCNC(=N)N)NC(=O)CNC(=O)[C@H](CCCNC(=N)N)NC(=O)CNC(=O)[C@H](CCCNC(=N)N)NC(=O)CNC(=O)[C@H](CCCNC(=N)N)NC(=O)CNC(=O)[C@H](CCCNC(=N)N)NC(=O)CNC(=O)[C@H](CCCNC(=N)N)NC(=O)CNC(=O)[C@H](CCCNC(=N)N)NC(=O)CNC(=O)[C@H](CCCNC(=N)N)NC(=O)CNC(=O)[C@H](CCCNC(=N)N)NC(=O)CNC(=O)[C@H](CCCNC(=N)N)NC(=O)CNC(=O)[C@H](CCCNC(=N)N)NC(=O)CNC(=O)[C@H](CCCNC(=N)N)NC(=O)CNC(=O)[C@H](CCCNC(=N)N)NC(=O)CNC(=O)[C@H](CCCNC(=N)N)NC(=O)CNC(=O)[C@H](CCCNC(=N)N)NC(=O)CNC(=O)[C@H](CCCNC(=N)N)NC(=O)CNC(=O)[C@H](CCCNC(=N)N)NC(=O)CNC(=O)[C@H](CCCNC(=N)N)NC(=O)CNC(=O)[C@H](CCCNC(=N)N)NC(=O)CNC(=O)[C@H](CCCNC(=N)N)NC(=O)CNC(=O)[C@H](CCCNC(=N)N)NC(=O)CNC(=O)[C@H](CCCNC(=N)N)NC(=O)CNC(=O)[C@H](CCCNC(=N)N)NC(=O)CN)C(=O)O [GR25] | 7.2 × 10^–3 cm/s | 
CCCC[N+](CCCC)(CCCC)CCCC [tetrabutylammonium] |  | 0.29
